Like-named read-outs stand apart in the source and are kept apart here.
Legend:
[1] = Single oral dose bioavailability study, fed/fasted crossover, plasma fusidic acid; details: human, in vivo, 500 mg, 500 mg single oral dose; for AUC(0-t): read-out: AUC0-t, geometric mean (CV %); for AUC(0-inf): read-out: AUCinf, geometric mean (CV %); for Cmax: read-out: Cmax, geometric mean (CV %); for half-life: read-out: t1/2, arithmetic mean ± SD (converted); for AUC: read-out: total exposure (AUC)
Description: This was a single-center, Phase 1, double-blind, randomized, 3 period, fed/fasted crossover bioequivalence study designed to evaluate the relative bioavailability and safety and tolerability of a single oral dose of CEM-102 500 mg compared to Fucidin® 500 mg in healthy subjects.
Subjects were randomized in equal numbers to the 4 treatment sequences (Table 3).
Study Period 1, 2, and 3 (Days 1, 15, and 29): One dose of study drug 500 mg (2×250 mg) of CEM-102 or Fucidin® was given at 8:00 AM (˜30 minutes). On Day 1 of Study Periods 1 and 2 (Days 1 and 15), subjects fasted overnight for at least 10 hours prior to dosing. On Day 1 of Study Period 3 (Day 29), subjects were given a high fat caloric meal which was to be entirely consumed within 30 minutes prior to study drug administration.
Blood samples for assay of plasma concentrations were collected on Days 1, 15 and 29 at pre-dose and 0.5, 1, 1.5, 2, 2.5, 3, 3.5, 4, 6, 8, 12, 16, 24, 36, and 48 hours after the dose. Plasma concentrations were assayed at MicroConstants, Inc. in San Diego, Calif. using a validated liquid chromatography with dual tandem mass spectrometry (LC/MS/MS) method with a lower limit of quantitation (LLOQ) of 20.0 ng/mL

[2] = system: methicillin-resistant S. aureus (MRSA) strain USA 300; assay: Hollow fiber pharmacodynamic model, resistance potential; type: cell-based
Description: A hollow fiber model was used to evaluate CEM-102 resistance potential in methicillin-resistant S. aureus (MRSA) strain USA 300 (Network of Antimicrobial Resistance in Staphylococcus aureus (NARSA), Chantilly, Va.). USA 300 is a highly virulent strain of MRSA and is the most common community-associated MRSA isolate in the USA. MIC values were determined in accordance with Clinical and Laboratory Standards Institute (CLSI).
The hollow fiber model comprised a two-compartment hollow fiber model (Louie et al. Antimicrob Agents Chemother 52:2486-2496(2008)) consisting of a volume of 15 mL in the central compartment, with multiple ports for the removal of broth, delivery of antibiotics, and collection of bacterial and antimicrobial samples. […] All experiments were performed in duplicate.
Hollow fibers contain 15 ml of media was prepared and inoculated with 10^6 colony forming units (CFU)/mL USA 300 bacteria. One of three different dosing regimens of […] was then applied to the fibers: (1) […] q12h; (2) 1200 mg/ml×2, followed by […], q12h; (3) 1500 mg/ml×2, followed by […], q12h.

[3] = Dose escalation study, single/multiple dose and loading dose regimens: pharmacokinetics; type: in vivo, human; details: for concentration at 7 days: after 7 days of dosing; for concentration at 7 days / concentration at 24 h: read-out: mean trough plasma concentration
Description: The pharmacokinetics (PK), safety, and tolerability of single and multiple doses of CEM-102 (sodium fusidate) were evaluated in a single-center, Phase 1, double-blind, randomized, placebo-controlled, dose-escalating study in 32 healthy adult subjects enrolled in 4 dosage groups (550, 1100, 1650, and 2200 mg). In each cohort, six subjects were to receive CEM-102 and two were to receive placebo in a single dose (Period 1) and then multiple doses BID for a total of 11 doses over 5.5 days (Period 2). The two dosing periods were separated by a seven-day washout period between the single dose in Period 1 and the first dose in Period 2.
Dosing proceeded as planned for Cohorts 1 to 3; however, Cohort 4 received only the single dose of 2200 mg (Period 1), because dose-limiting gastrointestinal intolerance was observed after multiple doses of 1650 mg BID in Cohort 3. Period 2 for Cohort 4 evaluated an initial loading dose regimen, and a second loading dose regimen was evaluated in an additional cohort (Cohort 5) per a protocol amendment.
The protocol was amended for assessment of the safety, tolerability, and PK of front-loaded dose regimens comprised of a higher dose of CEM-102 on Day 1 followed by lower doses for the subsequent 6.5 days. All loading dose regimens employed multiple doses lower than the maximum tolerated dose (MTD) established in the first part of the study (1650 mg administered as multiple doses).
The loading dose regimens assessed were 1100 mg BID on Day 1 and 550 mg BID on the following 6.5 days in Period 2 of Cohort 4 and 1650 mg BID on Day 1 and 825 mg BID on the following 6.5 days in Cohort 5.

[4] = human, in vivo, 550 mg, Period 1 Day 1, single dose 550 mg
[5] = human, in vivo, 1100 mg BID loading dose then 550 mg BID
[6] = human, in vivo, 1100 mg, Period 1 Day 1, single dose 1100 mg
[7] = human, in vivo, 1650 mg BID loading dose then 825 mg BID
[8] = human, in vivo, 1650 mg, Period 1 Day 1, single dose 1650 mg
[9] = human, in vivo, 2200 mg, Period 1 Day 1, single dose 2200 mg

CC(=O)O[C@H]1C[C@@]2(C)[C@@H](C[C@@H](O)[C@H]3[C@@]4(C)CC[C@@H](O)[C@@H](C)[C@@H]4CC[C@@]32C)/C1=C(\CCC=C(C)C)C(=O)O [CEM-102, Sodium fusidate]
AUC(0-t) ([1]; fasting): 300 µg·h/mL | AUC(0-inf) ([1]; fasting): 318 µg·h/mL | Cmax ([1]; fasting): 27.4 µg/mL | half-life ([1]; fasting): 11.8 ± 2.2 h | AUC ([1]; fasting): ~318 µg·h/mL | AUC(0-t) ([1]; fed): 269 µg·h/mL | AUC(0-inf) ([1]; fed): 285 µg·h/mL | Cmax ([1]; fed): 21.2 µg/mL | half-life ([1]; fed): 11.5 ± 2.75 h | AUC ([1]; fed): ~285 µg·h/mL | reduction of bacterial counts ([2]; 1200 mg×2 then 600 mg q12h): 2 logs | time until which resistance was suppressed ([2]; 1500 mg×2 then 600 mg q12h): > 72 h | AUC(0-12) accumulation ratio ([3]; Mean AUC(0-12) Day 6/Mean AUC(0-inf) Day 1, 550 mg): 2.61 | AUC(0-12) accumulation ratio ([3]; Mean AUC(0-12) Day 6/Mean AUC(0-inf) Day 1, 1100 mg): 2.30 | AUC(0-12) accumulation ratio ([3]; Mean AUC(0-12) Day 6/Mean AUC(0-inf) Day 1, 1650 mg): 1.83 | Cmax accumulation ratio ([3]; Mean Cmax Day 6/Mean Cmax Day 1, 550 mg): 3.89 | Cmax accumulation ratio ([3]; Mean Cmax Day 6/Mean Cmax Day 1, 1100 mg): 3.89 | Cmax accumulation ratio ([3]; Mean Cmax Day 6/Mean Cmax Day 1, 1650 mg): 3.18 | Kel, apparent first-order terminal elimination rate constant, mean ([3]; Period 1 Day 1, single dose 550 mg): 0.0564 h⁻¹ | Kel, apparent first-order terminal elimination rate constant, mean ([3]; Period 1 Day 1, single dose 1100 mg): 0.0617 h⁻¹ | Kel, apparent first-order terminal elimination rate constant, mean ([3]; Period 1 Day 1, single dose 1650 mg): 0.0498 h⁻¹ | Kel, apparent first-order terminal elimination rate constant, mean ([3]; Period 1 Day 1, single dose 2200 mg): 0.0500 h⁻¹ | Kel, mean ([3]; Period 2 Day 6, 550 mg BID): 0.0554 h⁻¹ | Kel, mean ([3]; Period 2 Day 6, 1100 mg BID): 0.0404 h⁻¹ | Kel, mean ([3]; Period 2 Day 6, 1650 mg BID): 0.0199 h⁻¹ | Tmax ([3]; human, in vivo, 550 mg): 3 h | Cmax [3, 4]: 33.4 µg/mL | Vd/F [3, 4]: 28.4 L | AUC(0-t) ([3]; human, in vivo, 550 mg, Period 1 Day 1, single dose 550 mg, read-out: AUC(0-24), mean): 242 µg·h/mL | half-life ([3]; human, in vivo, 550 mg, Period 1 Day 1, single dose 550 mg, read-out: T1/2, harmonic mean (converted)): 12.3 h | Tmax ([3]; human, in vivo, 550 mg, Period 1 Day 1, single dose 550 mg, read-out: Tmax, median): 2 h | Vd/F ([3]; human, in vivo, 550 mg, Period 2 Day 6, 550 mg BID): 9.88 L | Cmax ([3]; human, in vivo, 550 mg, Period 2 Day 6, 550 mg BID, 11 doses): 130 µg/mL | AUC(0-t) ([3]; human, in vivo, 550 mg, Period 2 Day 6, 550 mg BID, read-out: AUC(0-12), mean): 1150 µg·h/mL | half-life ([3]; human, in vivo, 550 mg, Period 2 Day 6, 550 mg BID, read-out: T1/2, harmonic mean (converted)): 12.5 h | concentration at 7 days [3, 5]: ~105 µg/mL | concentration at 24 h [3, 5]: ~74 µg/mL | Cmax [3, 6]: 72.2 µg/mL | Vd/F [3, 6]: 16.9 L | AUC(0-t) ([3]; human, in vivo, 1100 mg, Period 1 Day 1, single dose 1100 mg, read-out: AUC(0-24), mean): 844 µg·h/mL | half-life ([3]; human, in vivo, 1100 mg, Period 1 Day 1, single dose 1100 mg, read-out: T1/2, harmonic mean (converted)): 11.2 h | Vd/F ([3]; human, in vivo, 1100 mg, Period 2 Day 6, 1100 mg BID): 12.7 L | Cmax ([3]; human, in vivo, 1100 mg, Period 2 Day 6, 1100 mg BID, 11 doses): 281 µg/mL | AUC(0-t) ([3]; human, in vivo, 1100 mg, Period 2 Day 6, 1100 mg BID, read-out: AUC(0-12), mean): 2530 µg·h/mL | half-life ([3]; human, in vivo, 1100 mg, Period 2 Day 6, 1100 mg BID, read-out: T1/2, harmonic mean (converted)): 17.1 h | Tmax ([3]; human, in vivo, 1650 mg): 4 h | concentration at 7 days [3, 7]: ~200 µg/mL | concentration at 24 h [3, 7]: ~150 µg/mL | Cmax [3, 8]: 102 µg/mL | Vd/F [3, 8]: 21.1 L | AUC(0-t) ([3]; human, in vivo, 1650 mg, Period 1 Day 1, single dose 1650 mg, read-out: AUC(0-24), mean): 1260 µg·h/mL | Vd/F ([3]; human, in vivo, 1650 mg, Period 2 Day 6, 1650 mg BID): 34.8 L | Cmax ([3]; human, in vivo, 1650 mg, Period 2 Day 6, 1650 mg BID, 11 doses): 324 µg/mL | AUC(0-t) ([3]; human, in vivo, 1650 mg, Period 2 Day 6, 1650 mg BID, read-out: AUC(0-12), mean): 3290 µg·h/mL | half-life ([3]; human, in vivo, 1650 mg, Period 2 Day 6, 1650 mg BID, read-out: T1/2, harmonic mean (converted)): 31.6 h | CL/F, mean ([3]; human, in vivo, 2200 mg): 0.924 L/h | half-life ([3]; human, in vivo, 2200 mg): 13.9 h | Cmax [3, 9]: 128 µg/mL | Vd/F [3, 9]: 19.2 L | AUC(0-t) ([3]; human, in vivo, 2200 mg, Period 1 Day 1, single dose 2200 mg, read-out: AUC(0-24), mean): 1690 µg·h/mL | Tmax ([3]; human, in vivo, 2200 mg, Period 1 Day 1, single dose 2200 mg, read-out: Tmax, median): 6 h | AUC(0-inf) ([3]; human, in vivo, Period 1 Day 1, single dose 550 mg): 441 µg·h/mL | AUC(0-inf) ([3]; human, in vivo, Period 1 Day 1, single dose 1100 mg): 1100 µg·h/mL | AUC(0-inf) ([3]; human, in vivo, Period 1 Day 1, single dose 1650 mg): 1800 µg·h/mL | AUC(0-inf) ([3]; human, in vivo, Period 1 Day 1, single dose 2200 mg): 2650 µg·h/mL

Reference: patent publication US8450300B2 (priority 2009, dated 2013)
